Measured values taken from patent US8658659B2, “Substituted oxazole derivatives and their use as tyrosine kinase inhibitors” (AB Science, priority 2005, dated 2014).

Row | SMILES | melting point [°C]
1 | Cc1ccc(NS(=O)(=O)Cc2ccccc2)cc1Nc1ncc(-c2ccncc2)o1 [Compound 001, N-[4-Methyl-3-(5-pyridin-4-yl-oxazol-2-ylamino)-phenyl]-C-phenyl-methane sulfonamide] | 258
2 | Cc1ccc(Nc2nc3ccccc3o2)cc1Nc1ncc(-c2ccc(C#N)cc2)o1 [Compound 002, 4-{2-[5-(Benzooxazol-2-ylamino)-2-methyl-phenylamino]-oxazol-5-yl}-benzonitrile] | 236
3 | Cc1ccc(Nc2nc3ccccc3s2)cc1Nc1ncc(-c2ccc(C#N)cc2)o1 [Compound 003, 4-{2-[5-(Benzothiazol-2-ylamino)-2-methyl-phenylamino]-oxazol-5-yl}-benzonitrile] | 216 to 220
4 | Cc1ccc(Nc2nc3ccccc3o2)cc1Nc1ncc(-c2cccnc2)o1 [Compound 004, N1-Benzooxazol-2-yl-4-methyl-N3-(5-pyridin-3-yl-oxazol-2-yl)-benzene-1,3-diamine] | 238
5 | Cc1ccc(Nc2nc3cc(Cl)ccc3o2)cc1Nc1ncc(-c2ccncc2)o1 [Compound 005, N1-(5-Chloro-benzooxazol-2-yl)-4-methyl-N3-(5-pyridin-4-yl-oxazol-2-yl)-benzene-1,3-diamine] | 229
6 | Cc1ccc(Nc2nc3ccc(Cl)cc3o2)cc1Nc1ncc(-c2ccncc2)o1 [Compound 006, N1-(6-Chloro-benzooxazol-2-yl)-4-methyl-N3-(5-pyridin-4-yl-oxazol-2-yl)-benzene-1,3-diamine] | > 260
7 | CCS(=O)(=O)c1ccc2oc(Nc3ccc(C)c(Nc4ncc(-c5ccncc5)o4)c3)nc2c1 [Compound 007, N1-(5-Ethanesulfonyl-benzooxazol-2-yl)-4-methyl-N3-(5-pyridin-4-yl-oxazol-2-yl)-benzene-1,3-diamine] | 252
8 | Cc1ccc(Nc2nc3cc(F)ccc3o2)cc1Nc1ncc(-c2ccncc2)o1 [Compound 009, N1-(5-Fluoro-benzooxazol-2-yl)-4-methyl-N3-(5-pyridin-4-yl-oxazol-2-yl)-benzene-1,3-diamine] | 170
9 | Cc1ccc(Nc2nc3ccc(F)cc3o2)cc1Nc1ncc(-c2ccncc2)o1 [Compound 010, N1-(6-Fluoro-benzooxazol-2-yl)-4-methyl-N3-(5-pyridin-4-yl-oxazol-2-yl)-benzene-1,3-diamine] | 260
10 | Cc1ccc(N2CCN(c3cccc(F)c3)C2=O)cc1Nc1ncc(-c2ccc(C#N)cc2)o1 [Compound 011, 4-(2-{5-[3-(3-Fluoro-phenyl)-2-oxo-imidazolidin-1-yl]-2-methyl-phenylamino}-oxazol-5-yl)-benzonitrile] | 221
11 | Cc1ccc(N2CCN(c3cccc(C#N)c3)C2=O)cc1Nc1ncc(-c2ccc(C#N)cc2)o1 [Compound 012, 4-(2-{5-[3-(3-cyano-phenyl)-2-oxo-imidazolidin-1-yl]-2-methyl-phenylamino}-oxazol-5-yl)-benzonitrile] | > 260
12 | Cc1ccc(N2CCN(c3cccc(F)c3)C2=O)cc1Nc1ncc(-c2ccc(C(N)=O)cc2)o1 [Compound 013, 4-(2-{5-[3-(3-Fluoro-phenyl)-2-oxo-imidazolidin-1-yl]-2-methyl-phenylamino}-oxazol-5-yl)-benzamide] | > 260
13 | Cc1ccc(N2CCN(c3cccc(C(F)(F)F)c3)C2=O)cc1Nc1ncc(-c2ccncc2)o1 [Compound 015, 1-[4-Methyl-3-(5-pyridin-4-yl-oxazol-2-ylamino)-phenyl]-3-(3-trifluoromethyl-phenyl)-imidazolidin-2-one] | 198 to 200
14 | Cc1ccc(C(=O)CCc2ccccc2)cc1Nc1ncc(-c2ccncc2)o1 [Compound 017, 1-[4-Methyl-3-(5-pyridin-4-yl-oxazol-2-ylamino)-phenyl]-3-phenyl-propan-1-one] | 138
15 | CC(=O)c1ccc(C)c(Nc2ncc(-c3ccc(C#N)cc3)o2)c1 [Compound 018, 4-[2-(5-Acetyl-2-methyl-phenylamino)-oxazol-5-yl]-benzonitrile] | 240

Second part, the molecule after the results:

Row | melting point [°C] | SMILES
16 | 175 | Cc1ccc(C(=O)CCc2ccc(F)cc2)cc1Nc1ncc(-c2ccc(C#N)cc2)o1 [Compound 019, 4-(2-{5-[3-(4-Fluoro-phenyl)-propionyl]-2-methyl-phenylamino}-oxazol-5-yl)-benzonitrile]
17 | 138 | Cc1ccc(C(=O)CCc2ccccc2)cc1Nc1ncc(-c2ccc(C#N)cc2)o1 [Compound 020, 4-{2-[2-Methyl-5-(3-phenyl-propionyl)-phenylamino]-oxazol-5-yl}-benzonitrile]
18 | 157 | Cc1ccc(C(=O)CCc2cccc(F)c2)cc1Nc1ncc(-c2ccc(C#N)cc2)o1 [Compound 021, 4-(2-{5-[3-(3-Fluoro-phenyl)-propionyl]-2-methyl-phenylamino}-oxazol-5-yl)-benzonitrile]
19 | > 260 | CC(=O)c1ccc(C)c(Nc2ncc(-c3ccc(C(N)=O)cc3)o2)c1 [Compound 022, 4-[2-(5-Acetyl-2-methyl-phenylamino)-oxazol-5-yl]-benzamide]
20 | 202 | Cc1ccc(NCC(=O)c2ccc(F)cc2)cc1Nc1ncc(-c2ccncc2)o1 [Compound 023, 1-(4-Fluoro-phenyl)-2-[4-methyl-3-(5-pyridin-4-yl-oxazol-2-ylamino)-phenylamino]-ethanone]
21 | 230 | Cc1ccc(N(C)CC(=O)c2ccc(F)cc2)cc1Nc1ncc(-c2ccncc2)o1 [Compound 024, 1-(4-Fluoro-phenyl)-2-{methyl-[4-methyl-3-(5-pyridin-4-yl-oxazol-2-ylamino)-phenyl]-amino}-ethanone]
22 | 218 | Cc1ccc(N(C)CC(=O)c2ccc(C#N)cc2)cc1Nc1ncc(-c2ccncc2)o1 [Compound 025, 4-({Methyl-[4-methyl-3-(5-pyridin-4-yl-oxazol-2-ylamino)-phenyl]-amino}-acetyl)-benzonitrile]
23 | 152 | Cc1ccc(NCC(=O)c2ccccc2)cc1Nc1ncc(-c2ccncc2)o1 [Compound 026, 2-[4-Methyl-3-(5-pyridin-4-yl-oxazol-2-ylamino)-phenylamino]-1-phenyl-ethanone]
24 | 199 | Cc1ccc(NCC(=O)c2ccc(F)cc2)cc1Nc1ncc(-c2ccc(C#N)cc2)o1 [Compound 027, 4-(2-{5-[2-(4-Fluoro-phenyl)-2-oxo-ethylamino]-2-methyl-phenylamino}-oxazol-5-yl)-benzonitrile]
